Like-named read-outs stand apart in the source and are kept apart here.
Legend:
[1] = target: T1, hEP2/Gqs5 (Homo sapiens, UniProt P43116); assay: FLIPR calcium signal, hEP2; type: cell-based
T1 construct: expressed in transfected cells; host or cells: HEK-293(EBNA)
Protocol: (§1) HEK-293(EBNA) cells, stably expressing one type or subtype of recombinant human prostaglandin receptors (prostaglandin receptors expressed: hDP/Gqs5; hEP1; hEP2/Gqs5; hEP3A/Gqi5; hEP4/Gqs5; hFP; hIP; hTP), were cultured in 100 mm culture dishes in high-glucose DMEM medium containing 10% fetal bovine serum, 2 mM 1-glutamine, 250 μg/ml geneticin (G418) and 200 μg/ml hygromycin B as selection markers, and 100 units/ml penicillin G, 100 μg/ml streptomycin and 0.25 μg/ml amphotericin B. • (b) Calcium Signal Studies on the FLIPR™
(§2) Cells were seeded at a density of 5×10^4 cells per well in Biocoat® Poly-D-lysine-coated black-wall, clear-bottom 96-well plates (Becton-Dickinson) and allowed to attach overnight in an incubator at 37° C. Cells were then washed two times with HBSS-HEPES buffer (Hanks Balanced Salt Solution without bicarbonate and phenol red, 20 mM HEPES, pH 7.4) using a Denley Cellwash plate washer (Labsystems). After 45 minutes of dye-loading in the dark, using the calcium-sensitive dye Fluo-4 AM at a final concentration of 2 μM, plates were washed four times with HBSS-HEPES buffer to remove excess dye leaving 100 μl in each well. Plates were re-equilibrated to 37° C. for a few minutes.
(§3) Cells were excited with an Argon laser at 488 nm, and emission was measured through a 510-570 nm bandwidth emission filter (FLIPR™, Molecular Devices, Sunnyvale, Calif.). Drug solution was added in a 50 μl volume to each well to give the desired final concentration. The peak increase in fluorescence intensity was recorded for each well. On each plate, four wells each served as negative (HBSS-HEPES buffer) and positive controls (standard agonists: BW245C (hDP); PGE2 (hEP1; hEP2/Gqs5; hEP3A/Gqi5; hEP4/Gqs5); PGF2α (hFP); carbacyclin (hIP); U-46619 (hTP), depending on receptor). The peak fluorescence change in each drug-containing well was then expressed relative to the controls.
(§4) Compounds were tested in a high-throughput (HTS) or concentration-response (CoRe) format. In the HTS format, forty-four compounds per plate were examined in duplicates at a concentration of 10^−5 M. To generate concentration-response curves, four compounds per plate were tested in duplicates in a concentration range between 10^−5 and 10^−11 M. The duplicate values were averaged. In either, HTS or CoRe format each compound was tested on at least 3 separate plates using cells from different passages to give an n≧3.

[2] = target: T2, hEP4/Gqs5 (Homo sapiens, UniProt P35408); assay: FLIPR calcium signal, hEP4; type: cell-based
T2 construct: expressed in transfected cells; host or cells: HEK-293(EBNA)
Protocol: as §1, §2, §3, §4

[3] = target: T3, human EP2 receptors (Homo sapiens, UniProt P43116); assay: Competition radioligand binding ([3H]PGE2), EP2; settings: read-out: BINDING IC50 HEP2
T3 construct: expressed in transfected cells; host or cells: HEK 293
Protocol: Competition binding experiments were performed in a medium containing Hank's balanced salt solution, […], membranes (˜60 μg protein) or 2×10^5 cells from HEK 293 cells stably expressing human EP2 receptors, [^3H]PGE2 (10 nM) and various concentrations of test compounds in a total volume of 300 μl. Reaction mixtures were incubated at 23° C. for 60 min, and were filtered over Whatman GF/B filters under vacuum. Filters were washed three times with 5 ml ice-cold buffer containing 50 mM Tris/HCl (pH 7.3). Non-specific binding was estimated in the presence of excess unlabeled PGE2 (10 μM). Binding data fitted to the binding model for a single class of binding sites, using nonlinear regression analysis. IC50 values thus obtained were converted to Ki using the equation of Ki=(IC50/(1+[L]/KD) where [L] represents PGE2 concentration (10 nM) and KD the dissociation constant for [^3H]PGE2 at human EP2 receptors (40 nM).
HEK-293 cells stably expressing the human or feline FP receptor, or EP1, EP2, or EP4 receptors were washed with TME buffer, scraped from the bottom of the flasks, and homogenized for 30 sec using a Brinkman PT 10/35 polytron. TME buffer was added to achieve a final 40 ml volume in the centrifuge tubes (the composition of TME is 100 mM TRIS base, 20 mM MgCl2, […]; 10N HCl is added to achieve a pH of 7.4).
The cell homogenate was centrifuged at 19000 r.p.m. for 20 min at 4° C. using a Beckman Ti-60 rotor. The resultant pellet was resuspended in TME buffer to give a final 1 mg/ml protein concentration, as determined by Biorad assay. Radioligand binding competition assays vs. [^3H-]17 —phenyl PGF2α (5 nM) were performed in a 100 μl volume for 60 min. Binding reactions were started by adding plasma membrane fraction. The reaction was terminated by the addition of 4 ml ice-cold TRIS-HCl buffer and rapid filtration through glass fiber GF/B filters using a Brandel cell harvester. The filters were washed 3 times with ice-cold buffer and oven dried for one hour.
[^3H-] PGE2 (specific activity 180 Ci mmol) was used as the radioligand for EP receptors. [^3H] 17-phenyl PGF2α was employed for FP receptor binding studies. Binding studies employing EP1, EP2, EP4 and FP receptors were performed in duplicate in at least three separate experiments. A 200 μl assay volume was used. Incubations were for 60 min at 25° C. and were terminated by the addition of 4 ml of ice-cold 50 mM TRIS-HCl, followed by rapid filtration through Whatman GF/B filters and three additional 4 ml washes in a cell harvester (Brandel). Competition studies were performed using a final concentration of 5 nM [^3H]—PGE2, or 5 nM [^3H] 17-phenyl PGF2α and non-specific binding determined with 10^−5M of unlabeled PGE2, or 17-phenyl PGF2α, according to receptor subtype studied.

[4] = FLIPR Ca2+ signal, HEK-293(EBNA), read-out: FUNCTIONAL EC50 HEP2
[5] = FLIPR Ca2+ signal, HEK-293(EBNA), read-out: FUNCTIONAL EC50 HEP4
[6] = read-out: FUNCTIONAL Ca2+ EC50 HEP2
[7] = read-out: FUNCTIONAL Ca2+ EC50 HEP4

T2 sequence (P35408 whole entry): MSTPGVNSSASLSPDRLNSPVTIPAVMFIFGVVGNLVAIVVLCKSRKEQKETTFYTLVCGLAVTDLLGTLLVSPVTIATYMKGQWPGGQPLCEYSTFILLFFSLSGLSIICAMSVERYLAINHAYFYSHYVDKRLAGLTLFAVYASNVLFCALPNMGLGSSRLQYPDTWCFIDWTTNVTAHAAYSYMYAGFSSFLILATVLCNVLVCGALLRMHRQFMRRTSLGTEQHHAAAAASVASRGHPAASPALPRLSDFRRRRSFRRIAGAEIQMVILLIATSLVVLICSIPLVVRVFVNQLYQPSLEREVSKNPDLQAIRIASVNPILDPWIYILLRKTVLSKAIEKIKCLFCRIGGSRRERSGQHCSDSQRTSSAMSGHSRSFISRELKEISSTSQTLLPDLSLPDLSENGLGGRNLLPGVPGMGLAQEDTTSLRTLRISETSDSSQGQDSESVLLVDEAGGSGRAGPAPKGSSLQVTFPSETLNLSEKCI
T1 sequence (P43116 whole entry): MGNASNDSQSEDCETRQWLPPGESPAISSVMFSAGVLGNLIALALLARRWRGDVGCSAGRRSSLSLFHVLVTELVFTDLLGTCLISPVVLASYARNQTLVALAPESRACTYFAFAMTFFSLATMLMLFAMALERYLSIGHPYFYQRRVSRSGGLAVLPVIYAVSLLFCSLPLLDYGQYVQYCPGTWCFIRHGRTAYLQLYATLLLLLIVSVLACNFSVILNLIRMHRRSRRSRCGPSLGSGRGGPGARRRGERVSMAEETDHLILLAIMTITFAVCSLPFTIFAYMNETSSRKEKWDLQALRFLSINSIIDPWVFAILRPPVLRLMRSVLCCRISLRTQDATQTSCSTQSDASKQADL
T3 sequence (P43116 whole entry): as above

SMILES | EC50 [1, 4] [µM] | other results
CCCC1(C(O)c2cccc([C@H]3[C@H](O)CC(=O)[C@@H]3CCCCCCC(=O)O)c2)CCC1 (some centres unmarked) | 5.26 | 
CCCC1(C(O)c2cccc([C@H]3[C@H](O)CC(=O)[C@@H]3C/C=C\CCCC(=O)NCC)c2)CCC1 (some centres unmarked) | > 10 | EC50 [2, 5]: > 10 µM
CCCC1(C(O)c2ccc([C@H]3[C@H](O)CC(=O)[C@@H]3CCCCCCC(=O)OC)cc2)CCC1 (some centres unmarked) | > 10 | 
CCCC1(C(O)c2ccc([C@@H]3[C@@H](C/C=C\CCCC(=O)OC)[C@H](Cl)C[C@H]3O)cc2)CCC1 (some centres unmarked) | > 10 | 
CCCC1(C(O)c2ccc([C@H]3[C@H](O)CC(=O)[C@@H]3C/C=C\CCCC(=O)O)cc2)CCC1 (some centres unmarked) | 3.72 | 
CCCC1(C(O)c2ccc([C@H]3[C@H](O)CC(=O)[C@@H]3CCCCCCC(=O)O)cc2)CCC1 (some centres unmarked) | 0.635 | 
CCCC1(C(O)c2ccc([C@@H]3[C@@H](C/C=C\CCCC(=O)O)[C@H](Cl)C[C@H]3O)cc2)CCC1 (some centres unmarked) | 2.27 | 
CCCC1(C(O)c2ccc([C@@H]3[C@@H](CCCCCCC(=O)O)[C@H](Cl)C[C@H]3O)cc2)CCC1 (some centres unmarked) | 0.546 | 
COC(=O)CCCCCC[C@@H]1[C@@H](c2ccc(C(C)(C)C)cc2)[C@H](O)C[C@H]1Cl | > 10 | 
COC(=O)CCC/C=C\C[C@H]1C(=O)C[C@@H](O)[C@@H]1c1ccc(C(O)C2CCCCC2)cc1 (some centres unmarked) | > 10 | EC50 [2, 5]: > 10 µM
O=C(O)CCC/C=C\C[C@H]1C(=O)C[C@@H](O)[C@@H]1c1ccc(C(O)C2CCCCC2)cc1 (some centres unmarked) | > 10 | 
COC(=O)CCCCCC[C@H]1C(=O)C[C@@H](O)[C@@H]1c1ccc(C(O)C2CCCCC2)cc1 (some centres unmarked) | > 10 | 
O=C(O)CCCCCC[C@H]1C(=O)C[C@@H](O)[C@@H]1c1ccc(C(O)C2CCCCC2)cc1 (some centres unmarked) | 0.45 | 
O=C(O)CCCCCC[C@@H]1[C@@H](c2ccc(C(O)C3CCCCC3)cc2)[C@H](O)C[C@H]1Cl (some centres unmarked) | 2.81 | 
CCCC1(C(O)c2cccc([C@@H]3[C@@H](Cc4cccc(OCC(=O)O)c4)[C@H](Cl)C[C@H]3O)c2)CCC1 (some centres unmarked) | 0.266 | IC50 [3]: 5.2 µM
O=C(O)COC/C=C\C[C@@H]1[C@@H](c2ccc(C(O)C3CCCCC3)cc2)[C@H](O)C[C@H]1Cl (some centres unmarked) | 3.84 | 
O=C(O)COCCCC[C@@H]1[C@@H](c2ccc(C(O)C3CCCCC3)cc2)[C@H](O)C[C@H]1Cl (some centres unmarked) | 20.8 | 
O=C(O)COCC#CCC1[C@H](Cl)C[C@@H](O)[C@@H]1c1ccc(C(O)C2CCCCC2)cc1 (some centres unmarked) | 1.55 | 
O=C(O)CCC/C=C\C[C@H]1C(=O)C[C@@H](O)[C@@H]1c1ccc2c(c1)CCC2O (some centres unmarked) | 0.405 | IC50 [3]: 2.28 µM
O=C(O)CCC/C=C\C[C@H]1C(=O)C[C@@H](O)[C@@H]1c1ccc(C2(O)CCC2)cc1 | > 10 | 
COC(=O)CCC/C=C\C[C@@H]1[C@@H](c2ccc(C3(O)CCC3)cc2)[C@H](O)C[C@H]1Cl | > 10 | 
CC(C)(CO)c1ccc([C@H]2[C@H](O)CC(=O)[C@@H]2CCCCCCC(=O)O)cc1 | 0.526 | IC50 [3]: 18.7 µM

SMILES | EC50 [1, 4] [µM] | other results
CC(C)(CO)c1ccc([C@@H]2[C@@H](CCCCCCC(=O)O)[C@H](Cl)C[C@H]2O)cc1 | 0.708 | EC50 [2, 5]: > 10 µM; IC50 [3]: 8.95 µM
COC(=O)CCCCCC[C@H]1C(=O)C[C@@H](O)[C@@H]1c1ccc(C)cc1 | > 10 | 
COC(=O)CCC/C=C\C[C@@H]1[C@@H](c2ccc(CO)cc2)[C@H](O)C[C@H]1Cl | > 10 | 
O=C(O)CCC/C=C\C[C@@H]1[C@@H](c2ccc(CO)cc2)[C@H](O)C[C@H]1Cl |  | IC50 [3]: 13.2 µM
COC(=O)CCCCCC[C@@H]1[C@@H](c2ccc(CO)cc2)[C@H](O)C[C@H]1Cl |  | EC50 [2, 5]: > 10 µM
O=C(O)CCCCCC[C@@H]1[C@@H](c2ccc(CO)cc2)[C@H](O)C[C@H]1Cl | > 10 | 
CC(C)(C)C(O)c1ccc([C@@H]2[C@@H](C/C=C\CCCC(=O)O)[C@H](Cl)C[C@H]2O)cc1 (some centres unmarked) | 0.779 | EC50 [2, 5]: > 10 µM; IC50 [3]: 1.54 µM
COC(=O)CCC/C=C\C[C@@H]1[C@@H](c2ccc(C(O)C(C)C)cc2)[C@H](O)C[C@H]1Cl (some centres unmarked) | > 10 | EC50 [2, 5]: > 10 µM
COC(=O)CCCCCC[C@@H]1[C@@H](c2ccc(C(O)C(C)C)cc2)[C@H](O)C[C@H]1Cl (some centres unmarked) | > 10 | EC50 [2, 5]: > 10 µM
COC(=O)CCC/C=C\C[C@H]1C(=O)CC[C@@H]1c1ccc([C@H](O)C2CCCCC2)cc1 |  | EC50 [1, 6]: > 10 µM
O=C(O)CCCCCC[C@H]1C(=O)CC[C@@H]1c1ccc(C2(O)CCC2)cc1 |  | EC50 [1, 6]: > 10 µM
CCCCCC(O)c1ccc([C@H]2CCC(=O)[C@@H]2CCCc2ccc(C(=O)O)s2)cc1 (some centres unmarked) |  | EC50 [2, 7]: > 10 µM
O=C(O)CCC/C=C\C[C@@H]1[C@@H](c2ccc(C(O)C3CCCCC3)cc2)[C@H](O)C[C@H]1Cl (some centres unmarked) [drawing 77] | 0.392 | 
COC(=O)CCC/C=C\C[C@@H]1[C@@H](c2ccc(C(C)(C)CO)cc2)[C@H](O)C[C@H]1Cl [drawing 113] |  | EC50 [2, 5]: > 10 µM
CC(C)(CO)c1ccc([C@@H]2[C@@H](C/C=C\CCCC(=O)O)[C@H](Cl)C[C@H]2O)cc1 [drawing 114] | > 10 | 
COC(=O)CCCCCC[C@@H]1[C@@H](c2ccc(C(C)(C)CO)cc2)[C@H](O)C[C@H]1Cl [drawing 115] | > 10 | EC50 [2, 5]: 26.3 µM
COC(=O)CCC/C=C\C[C@@H]1[C@@H](c2ccc(C(C)(C)CO)cc2)[C@H](O)C[C@H]1Cl [drawing 117] | > 10 | IC50 [3]: 48.8 µM
CC(C)(CO)c1ccc([C@@H]2[C@@H](C/C=C\CCCC(=O)O)[C@H](Cl)C[C@H]2O)cc1 [drawing 118] | 0.173 | IC50 [3]: 4.19 µM
COC(=O)CCCCCC[C@@H]1[C@@H](c2ccc(C(C)(C)CO)cc2)[C@H](O)C[C@H]1Cl [drawing 119] | > 10 | EC50 [2, 5]: > 10 µM
COC(=O)CCCCCC[C@@H]1[C@@H](c2ccc(C(O)C(C)(C)C)cc2)[C@H](O)C[C@H]1Cl (some centres unmarked) [drawing 131] | 5 | EC50 [2, 5]: > 10 µM
COC(=O)CCCCCC[C@@H]1[C@@H](c2ccc(C(O)C(C)(C)C)cc2)[C@H](O)C[C@H]1Cl (some centres unmarked) [drawing 133] | 6.58 | EC50 [2, 5]: > 10 µM
CCCC1([C@@H](O)c2ccc([C@H]3CCC(=O)[C@@H]3C/C=C\CCCC(=O)O)cc2)CCC1 [drawing 194] |  | EC50 [1, 6]: > 10 µM; EC50 [2, 7]: > 10 µM
